Test results taken from patent US20220033397A1, “PHARMACEUTICAL COMPOUNDS AND THEIR USE AS INHIBITORS OF UBIQUITIN SPECIFIC PROTEASE 19 (USP19)” (ALMAC DISCOVERY LIMITED, priority 2018, published 2022).

What follows are molecules tested against T1, Full-length USP19 (Homo sapiens, UniProt O94966) (assay: USP19 fluorescence polarisation (FP) homogeneous assay with Ubiquitin-Lys-TAMRA substrate). Conditions: 2.5 nM USP19, 30 min pre-incubation, average of at least two duplicate experiments.
T1 construct: Full-length USP19 was purchased from Boston Biochem (E-576); purchased Boston Biochem E-576
T1 sequence (O94966 1-1318): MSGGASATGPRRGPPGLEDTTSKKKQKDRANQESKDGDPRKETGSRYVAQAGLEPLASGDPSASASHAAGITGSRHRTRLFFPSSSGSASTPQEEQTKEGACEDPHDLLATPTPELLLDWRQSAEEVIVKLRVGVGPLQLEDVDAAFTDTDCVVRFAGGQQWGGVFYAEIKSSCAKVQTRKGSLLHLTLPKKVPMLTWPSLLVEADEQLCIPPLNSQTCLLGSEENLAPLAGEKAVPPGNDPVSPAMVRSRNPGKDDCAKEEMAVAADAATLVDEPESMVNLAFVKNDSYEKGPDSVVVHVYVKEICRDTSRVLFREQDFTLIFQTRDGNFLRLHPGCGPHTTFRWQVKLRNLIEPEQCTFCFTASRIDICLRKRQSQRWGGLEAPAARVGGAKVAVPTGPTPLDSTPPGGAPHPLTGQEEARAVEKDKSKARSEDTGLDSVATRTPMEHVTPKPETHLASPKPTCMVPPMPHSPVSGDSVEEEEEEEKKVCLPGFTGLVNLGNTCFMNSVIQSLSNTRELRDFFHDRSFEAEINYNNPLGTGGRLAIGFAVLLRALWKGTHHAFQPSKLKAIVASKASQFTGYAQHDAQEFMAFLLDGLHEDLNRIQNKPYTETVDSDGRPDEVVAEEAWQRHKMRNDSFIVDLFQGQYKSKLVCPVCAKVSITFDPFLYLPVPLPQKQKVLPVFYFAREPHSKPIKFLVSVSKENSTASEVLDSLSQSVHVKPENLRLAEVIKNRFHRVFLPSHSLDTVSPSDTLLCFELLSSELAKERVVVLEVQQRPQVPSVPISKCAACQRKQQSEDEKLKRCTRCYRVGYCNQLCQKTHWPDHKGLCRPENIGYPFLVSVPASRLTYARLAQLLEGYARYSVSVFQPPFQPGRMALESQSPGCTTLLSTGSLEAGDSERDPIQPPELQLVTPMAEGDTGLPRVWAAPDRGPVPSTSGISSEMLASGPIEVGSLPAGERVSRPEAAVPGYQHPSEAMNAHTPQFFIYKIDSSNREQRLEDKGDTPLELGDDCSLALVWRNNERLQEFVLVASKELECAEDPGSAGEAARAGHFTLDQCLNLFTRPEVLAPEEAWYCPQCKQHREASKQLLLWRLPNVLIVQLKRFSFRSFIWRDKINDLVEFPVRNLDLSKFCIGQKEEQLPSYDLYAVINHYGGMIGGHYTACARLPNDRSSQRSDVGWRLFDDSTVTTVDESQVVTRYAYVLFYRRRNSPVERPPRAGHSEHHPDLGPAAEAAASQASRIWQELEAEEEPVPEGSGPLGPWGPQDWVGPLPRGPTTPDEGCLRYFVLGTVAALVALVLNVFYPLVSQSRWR
Format: biochemical
Experimental: Unless otherwise stated, all other reagents were purchased from Sigma. Enzymatic reactions were conducted in black flat bottom polystyrene 384-well plates (Nunc) and 30 μL total volume. […] Inhibitors were stored as 10 mM DMSO stocks in an inert environment (low humidity, dark, low oxygen, room temperature) using the Storage Pod System and serial dilutions were prepared in buffer just prior to the assay (from 200 μM to 2 μM, 8-18 data point curve).
Following incubation at RT for 30 min, the enzymatic reactions were initiated by dispensing the Ub substrate (500 nM, 10 μL). FP was measured every 15 min over a period of 90 min (within the linear range of the assay) using a Synergy 4 plate reader (BioTek) exciting at 530 nm and measuring the amount of parallel and perpendicular light at 575 nm. The FP signal was subsequently normalised to the no compound control.

First: CC1CC(=O)N(CC2(O)CCN(C(=O)[C@H](C)CC(F)(F)F)CC23CCCC3)CC(C)C1 (stereo partly drawn) [Example 99, 1-((10-Hydroxy-7-((R)-4,4,4-trifluoro-2-methylbutanoyl)-7-azaspiro[4.5]decan-10-yl)methyl)-4,6-dimethylazepan-2-one]
Second: CNc1ncc2c(=O)n(CC3(O)CCN(C(=O)[C@H](C)CC(F)(F)F)CC34CCCC4)ccc2n1 (stereo partly drawn) [Example 57, 6-((10-Hydroxy-7-((R)-4,4,4-trifluoro-2-methylbutanoyl)-7-azaspiro[4.5]decan-10-yl)methyl)-2-(methylamino)pyrido[4,3-d]pyrimidin-5(6H)-one]
The IC50 of the first is higher: 5000 to 50000 nM for the first, 500 to 5000 nM for the second.

First: O=C(N1CCC(O)(Cn2ccc(-c3ccccc3)c(F)c2=O)C2(CCCC2)C1)N1CCNC[C@H]1c1ccccc1 (stereo partly drawn) [Example 332, 3-Fluoro-1-((10-hydroxy-7-((R)-2-phenylpiperazine-1-carbonyl)-7-azaspiro[4.5]decan-10-yl)methyl)-4-phenylpyridin-2(1H)-one]
Second: O=C(N1CC[C@@](O)(Cn2cnc(-c3ccccc3)cc2=O)C2(CCCC2)C1)N1CCNC[C@@H]1c1ccccc1 [Example 210, 3-(((S)-10-Hydroxy-7-((S)-2-phenylpiperazine-1-carbonyl)-7-azaspiro[4.5]decan-10-yl)methyl)-6-phenylpyrimidin-4(3H)-one]
The IC50 of the first is higher: 500 to 5000 nM for the first, less than 500 nM for the second. The second is the more potent here.

`COc1cc2ncn(CC3(O)CCN(C(=O)[C@H](C)CC4CCCCC4)CC34CCCC4)c(=O)c2cc1OC` (stereo partly drawn) [Example 52, 3-((7-((R)-3-Cyclohexyl-2-methylpropanoyl)-10-hydroxy-7-azaspiro[4.5]decan-10-yl)methyl)-6,7-dimethoxyquinazolin-4(3H)-one] and `C[C@H](CC1CCCCC1)C(=O)N1CCC(O)(Cn2cnc3ccccc3c2=O)C2(CCCC2)C1` (stereo partly drawn) [Example 128, 3-((7-((R)-3-Cyclohexyl-2-methylpropanoyl)-10-hydroxy-7-azaspiro[4.5]decan-10-yl)methyl)quinazolin-4(3H)-one] fall in the same range of IC50: 500 to 5000 nM for the first, 500 to 5000 nM for the second.

`O=C(NCc1ccccc1F)N1CCC(O)(Cn2cnc(-c3ccccc3)cc2=O)C2(CCCC2)C1` (stereo not shown) [Example 254, N-(2-Fluorobenzyl)-10-hydroxy-10-((6-oxo-4-phenylpyrimidin-1(6H)-yl)methyl)-7-azaspiro[4.5]decane-7-carboxamide] and `O=C(NCc1ccc(F)c(F)c1)N1CC[C@@](O)(Cn2cnc(-c3ccccc3)cc2=O)C2(CCCC2)C1` [Example 304, (S)—N-(3,4-Difluorobenzyl)-10-hydroxy-10-((6-oxo-4-phenylpyrimidin-1(6H)-yl)methyl)-7-azaspiro[4.5]decane-7-carboxamide] cannot be ordered by IC50: less than 500 nM for the first, less than 500 nM for the second.

First: CN(CC1CC1)C(=O)N1CC[C@@](O)(Cn2cnc(-c3ccccc3)cc2=O)C2(CCCC2)C1 [Example 313, (S)—N-(Cyclopropylmethyl)-10-hydroxy-N-methyl-10-((6-oxo-4-phenylpyrimidin-1(6H)-yl)methyl)-7-azaspiro[4.5]decane-7-carboxamide]
Second: CC1(C)CCCN1C(=O)N1CCC(O)(Cn2cnc(-c3ccccc3)cc2=O)C2(CCCC2)C1 (stereo not shown) [Example 240, 3-((7-(2,2-Dimethylpyrrolidine-1-carbonyl)-10-hydroxy-7-azaspiro[4.5]decan-10-yl)methyl)-6-phenylpyrimidin-4(3H)-one]
The IC50 of the first is lower: 500 to 5000 nM for the first, 5000 to 50000 nM for the second.

`COc1ccc(F)cc1-c1cc(=O)n(C[C@]2(O)CCN(C(=O)N3CCNC[C@H]3c3ccccc3)CC23CCCC3)cn1` [Example 384, 6-(5-Fluoro-2-methoxyphenyl)-3-(((S)-10-hydroxy-7-((R)-2-phenylpipera-zine-1-carbonyl)-7-azaspiro[4.5]decan-10-yl)methyl)pyrimi-din-4(3H)-one] and `O=C(N1CC[C@@](O)(Cn2cnc(-c3ccc(F)cc3)cc2=O)C2(CCCC2)C1)N1CCNC[C@H]1c1ccccc1` [Example 316, 6-(4-Fluorophenyl)-3-(((S)-10-hydroxy-7-((R)-2-phenylpiperazine-1-carbonyl)-7-azaspiro[4.5]decan-10-yl)methyl)pyrimidin-4(3H)-one] cannot be ordered by IC50: less than 500 nM for the first, less than 500 nM for the second.

First: C[C@H](CC1CCCCC1)C(=O)N1CCC(O)(CN2C(=O)C(=O)c3ccccc32)C2(CCCC2)C1 (stereo partly drawn) [Example 36, 1-((7-((R)-3-Cyclohexyl-2-methylpropanoyl)-10-hydroxy-7-azaspiro[4.5]decan-10-yl)methyl)indoline-2,3-dione]
Second: C[C@H](CC1CCCCC1)C(=O)N1CCC(O)(CN2Cc3ncccc3C2=O)C2(CCCC2)C1 (stereo partly drawn) [Example 103, 6-((7-((R)-3-Cyclohexyl-2-methylpropanoyl)-10-hydroxy-7-azaspiro[4.5]decan-10-yl)methyl)-6,7-dihydro-5H-pyrrolo[3,4-b]pyridin-5-one]
The IC50 of the first is higher: 5000 to 50000 nM for the first, 500 to 5000 nM for the second.

`C[C@H](CC(F)(F)F)C(=O)N1CCC(O)(Cn2ccc3nc(N4CCOCC4)ncc3c2=O)C2(CCCC2)C1` (stereo partly drawn) [Example 60, 6-((10-Hydroxy-7-((R)-4,4,4-trifluoro-2-methylbutanoyl)-7-azaspiro[4.5]decan-10-yl)methyl)-2-morpholinopyrido[4,3-d]pyrimidin-5(6H)-one] and `C[C@H](CC(F)(F)F)C(=O)N1CCC(O)(Cn2cnc3nc(N4CCOCC4)ncc3c2=O)C2(CCCC2)C1` (stereo partly drawn) [Example 162, 3-((10-Hydroxy-7-((R)-4,4,4-trifluoro-2-methylbutanoyl)-7-azaspiro[4.5]decan-10-yl)methyl)-7-morpholinopyrimido[4,5-d]pyrimidin-4(3H)-one] fall in the same range of IC50: 500 to 5000 nM for the first, 500 to 5000 nM for the second.

Compared with `C[C@H](CC1CCCCC1)C(=O)N1CCC(O)(CN2C(=O)COc3cccnc32)C2(CCCC2)C1` (stereo partly drawn) [Example 35, 4-((7-((R)-3-Cyclohexyl-2-methylpropanoyl)-10-hydroxy-7-azaspiro[4.5]decan-10-yl)methyl)-2H-pyrido[3,2-b][1,4]oxazin-3(4H)-one], `O=C(N1CC[C@@](O)(Cn2cnc(N3CCCC3)cc2=O)C2(CCCC2)C1)N1CCOC[C@H]1c1ccccc1` [Example 223, 3-(((S)-10-Hydroxy-7-((R)-3-phenylmorpholine-4-carbonyl)-7-azaspiro[4.5]decan-10-yl)methyl)-6-(pyrrolidin-1-yl)pyrimidin-4(3H)-one] is lower in IC50: 500 to 5000 nM for the first, less than 500 nM for the second.

`Cn1cc(-c2cc(=O)n(C[C@]3(O)CCN(C(=O)N4CCOC[C@H]4c4ccc(F)cc4)CC34CCCC4)cn2)cn1` [Example 285, 3-(((S)-7-((R)-3-(4-Fluorophenyl)morpholine-4-carbonyl)-10-hydroxy-7-azaspiro[4.5]decan-10-yl)methyl)-6-(1-methyl-1H-pyrazol-4-yl)pyrimidin-4(3H)-one] and `O=C(N1CC[C@@](O)(Cn2cnc(-c3ccccc3C(F)(F)F)cc2=O)C2(CCCC2)C1)N1CCNC[C@H]1c1ccccc1` [Example 360, 3-(((S)-10-Hydroxy-7-((R)-2-phenylpiperazine-1-carbonyl)-7-azaspiro[4.5]decan-10-yl)methyl)-6-(2-(trifluoromethyl)phe-nyl)pyrimidin-4(3H)-one] cannot be ordered by IC50: less than 500 nM for the first, less than 500 nM for the second.

First: CN(C)C(=O)c1cn(CC2(O)CCN(C(=O)N3CCC(C(F)(F)F)C3)CC23CCCC3)c(=O)cc1-c1ccccc1 (stereo not shown) [Example 88, 1-((10-Hydroxy-7-(3-(trifluoromethyl)pyrrolidine-1-carbonyl)-7-azaspiro[4.5]decan-10-yl)methyl)-N,N-dimethyl-6-oxo-4-phenyl-1,6-dihydropyridine-3-carboxamide]
Second: C[C@H](CC(F)(F)F)C(=O)N1CCC(O)(Cn2cnc3c(cnn3Cc3ccccc3)c2=O)C2(CCCC2)C1 (stereo partly drawn) [Example 168, 1-Benzyl-5-((10-hydroxy-7-((R)-4,4,4-trifluoro-2-methylbutanoyl)-7-azaspiro[4.5]decan-10-yl)methyl)-1,5-dihydro-4H-pyrazolo[3,4-d]pyrimidin-4-one]
The IC50 of the first is lower: less than 500 nM for the first, 5000 to 50000 nM for the second.
